Reference: US20210008070A1, “TARGETING MINIMAL RESIDUAL DISEASE IN CANCER WITH CD36 ANTAGONISTS” (VIB VZW, priority 2018, published 2021)

Legend:
MM52 cells = assay: Colony assay / Cell Titer Glo in short-term melanoma culture MM52; type: cell-based, human
Experimental: D) Colony assay performed over 7 days.
E) and Cell Titer Glo assay performed after 6 days after incubation of the short culture melanoma line MM052 with MEK inhibitor trametinib (TRA; […]; 1 uM), FAK inhibitor PF-562271 (1 uM) and RXRG antagonist HX531 (2 uM)
Cells were grown to near confluency on 12well plates and treated with the indicated drug combinations for the indicated time period. Cells were washed once with PBS, stained with crystal violet (1% crystal violet w/v, 35% methanol v/v) for 15 min, washed with PBS and destained in tap water.
1.15. Cell Titer Glo 2500 cells were plated onto a 96 well plate and treated with the indicated drug combinations for the indicated time period. Cell Titer Glo assay was performed according to the manufacturer's instruction (Promega) and luminescence was measured on a VictorX3 (Perkin Elmer).

[1] = tested on: GFRA2-positive MEL006 cells; assay: FACS of GFRA2-positive cells in MEL006 cultures
Experimental: Cells were resuspended in FACS sorting buffer (culture medium supplied with 1% EDTA 100 mM).

RAR receptors = settings: cited from earlier work

With `CN1c2ccc([N+](=O)[O-])cc2N=C(c2ccc(C(=O)O)cc2)c2cc3c(cc21)C(C)(C)CCC3(C)C` [HX531] the “sensitivity of MM52 cells to trametinib” value (MM52 cells; HX531 plus trametinib) was “sensitized these cells to trametinib” and the “drug-dependent induction of GFRA2-positive cells” value ([1]; with IC50 concentrations of BRAF and MEK-inhibitors) was “completely inhibited emergence”.
In the case of `CN(c1ncccc1CNc1nc(Nc2ccc3c(c2)CC(=O)N3)ncc1C(F)(F)F)S(C)(=O)=O` [PF-562271], the “drug-dependent emergence of the GFRA2-high cell population” value ([1]; added to DT) is reported as “diminished the drug-dependent emergence of the GFRA2-high cell population in a dose-dependent manner”.
For `CC1(C)CCC(C)(C)c2cc(C3(c4ccc(C(=O)O)cc4)OCCO3)ccc21` [SR 11237], the RAR activity (RAR receptors) is listed as “devoid of any RAR activity”.
For `C=C(c1ccc(C(=O)O)cc1)c1cc2c(cc1C)C(C)(C)CCC2(C)C` [bexarotene], the long-term growth inhibition (MM52 cells; alone) was “did not induce measurable long-term growth inhibition”, the “sensitivity to a combination of trametinib/FAK-inhibitors” value (MM52 cells; bexarotene added) was “increased the sensitivity” and the “sensitivity of MM52 cells to trametinib” value (MM52 cells; bexarotene at concentrations as low as 10 nM) was “significantly decreased the sensitivity”. The “cells with cell death” value (MM52 cells; bexarotene with trametinib/FAK-inhibitors, after 3 days of treatment) was ~100%.
